According to patent publication US6632808B1 (priority 1998, dated 2003):
Where two headings read alike, the source gives them in different places. Marks after values point to notes of the source that are not given here.

Assays:
[1] = test system: PrP-res formation in scrapie infected neuroblastoma (ScNB) cells; assay type: cell-based, mouse; details: for % control PrP-res (at 10 μg TSP/ml): 10 μg/ml (~10 μM) meso-porphyrin, relative to untreated ScNB cells; for IC50: ScNB cells
[2] = biological target: conversion of hamster PrP-sen to PrP-res (Mesocricetus auratus, UniProt P04273); assay type: biochemical; details: 10 μg/ml tetrapyrrole; for conversion, % of control: mean SD
conversion of hamster PrP-sen to PrP-res, sequence (P04273 23-230 limits assumed): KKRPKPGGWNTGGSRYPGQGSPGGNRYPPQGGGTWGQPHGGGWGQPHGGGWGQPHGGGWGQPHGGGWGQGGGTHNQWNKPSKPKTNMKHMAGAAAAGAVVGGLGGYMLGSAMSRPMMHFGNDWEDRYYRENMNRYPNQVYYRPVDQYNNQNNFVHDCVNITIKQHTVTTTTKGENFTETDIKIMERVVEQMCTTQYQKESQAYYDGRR

[3] = have been reported; cited from earlier work
[4] = mouse, in vivo, ip
[5] = footnote b values are half-way between 10-fold dilutions (~±50%), read-out: IC50 (μM), PrP-res formation, meso-porphyrins

Compound | % control PrP-res (at 10 μg TSP/ml) [1] | IC50 [1, 5] [µM] | further results
C1=Cc2nc1c(-c1ccncc1)c1ccc([nH]1)c(-c1ccncc1)c1nc(c(-c3ccncc3)c3ccc([nH]3)c2-c2ccncc2)C=C1 [T(4-Py)P] | 12 ± 0^a % | – | –
C[n+]1ccc(-c2c3nc(c(-c4cc[n+](C)cc4)c4ccc([nH]4)c(-c4cc[n+](C)cc4)c4nc(c(-c5cc[n+](C)cc5)c5ccc2[nH]5)C=C4)C=C3)cc1 [T(N-Me-4-Py)P] | 50 ± 0% | – | conversion, % of control [2]: 66±18%
O=S(=O)(O)c1ccc(-c2c3nc(c(-c4ccc(S(=O)(=O)O)cc4)c4ccc([nH]4)c(-c4ccc(S(=O)(=O)O)cc4)c4nc(c(-c5ccc(S(=O)(=O)O)cc5)c5ccc2[nH]5)C=C4)C=C3)cc1 [T(Ph-4-SO^−3)P] | 44 ± 31% | ~5 | tolerability [3]: well tolerated
Phthalocyanine tetrasulfonate [PcTS] | – | – | % control PrP-res (at 10 μg Pc/ml) ([1]; 10 μg Pc/ml (about 10 μM) in medium, 3-4 days, band intensity relative to untreated ScNB cells, mean ± SD): <3%; IC50 ([1]; concentration giving 50% inhibition of PrP-res formation relative to control, footnote a values are half-way between 10-fold dilutions (±50%), read-out: IC50 (μM), PrP-res formation, phthalocyanines): 0.5 µM; conversion, % of control [2]: 0±0%; time detectable in the spleen after treatment had stopped [4]: at least 8 months
C[n+]1ccccc1-c1c2nc(c(-c3cccc[n+]3C)c3ccc([nH]3)c(-c3cccc[n+]3C)c3nc(c(-c4cccc[n+]4C)c4ccc1[nH]4)C=C3)C=C2 [T(N-Me-2-Py)P] | 4 ± 3% | ~5 | inhibition of cell-free conversion, in words [2]: not significantly inhibitory
C[N+](C)(C)c1ccc(-c2c3nc(c(-c4ccc([N+](C)(C)C)cc4)c4ccc([nH]4)c(-c4ccc([N+](C)(C)C)cc4)c4nc(c(-c5ccc([N+](C)(C)C)cc5)c5ccc2[nH]5)C=C4)C=C3)cc1 [T(Ph-4-NMe^+3)P] | – | 5 ± 0.8 | inhibition of cell-free conversion, in words [2]: not significantly inhibitory
C[n+]1cccc(-c2c3nc(c(-c4ccc[n+](C)c4)c4ccc([nH]4)c(-c4ccc[n+](C)c4)c4nc(c(-c5ccc[n+](C)c5)c5ccc2[nH]5)C=C4)C=C3)c1 [T(N-Me-3-Py)P] | 50 ± 0^a % | – | –
O=C(O)c1ccc(-c2c3nc(c(-c4ccc(C(=O)O)cc4)c4ccc([nH]4)c(-c4ccc(C(=O)O)cc4)c4nc(c(-c5ccc(C(=O)O)cc5)c5ccc2[nH]5)C=C4)C=C3)cc1 [T(Ph-4-COOH)P] | 50 ± 0% | – | –
